Source: patent publication US9745283B2, “Uracil derivatives as AXL and c-MET kinase inhibitors” (priority 2011, dated 2017)

What was measured:
[1] = target: recombinant human baculovirus-expressed cMET (Homo sapiens (Human), UniProt P08581); experiment: C-MET Kinase Assay (HTRF KinEASE); assay type: biochemical; conditions: average of two or more determinations; read-out: c-MET IC50
Procedure, shortened: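 HTRF KinEASE format with recombinant human baculovirus-expressed cMET at 8 ng/mL, biotinylated peptide at 0.1 μM and ATP at 0.02 μM. IC50 came from percent control activity versus log concentration, fitted by nonlinear regression to a variable-slope sigmoidal equation with bottom fixed at 0 and top at 100.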

[2] = target: recombinant human baculovirus-expressed AXL (Homo sapiens (Human), UniProt P30530); experiment: AXL Kinase Assay (HTRF KinEASE); assay type: biochemical; conditions: average of two or more determinations

Compound | IC50 [1] [nM] | IC50 [2] [nM]
CCC(C)Cn1c(=O)c(C(=O)Nc2ccc(Oc3ccnc4cc(OC)c(OC)cc34)c(F)c2)nn(C)c1=O (racemic) [Example 130, ±2-Methyl-4-(2-methyl-butyl)-3,5-dioxo-2,3,4,5-tetrahydro-[1,2,4]triazine-6-carboxylic acid [4-(6,7-dimethoxy-quinolin-4-yloxy)-3-fluoro-phenyl]-amide] | 10 to 100 | < 10
COc1cc2nccc(Oc3ccc(NC(=O)c4nn(C(C)C)c(=O)n(-c5ccc(F)cc5)c4=O)nc3)c2cc1OC [Example 110, 4-(4-Fluoro-phenyl)-2-isopropyl-3,5-dioxo-2,3,4,5-tetrahydro-[1,2,4]triazine-6-carboxylic acid [5-(6,7-dimethoxy-quinolin-4-yloxy)-pyridin-2-yl]-amide] | 10 to 100 | < 10
COc1cc2nccc(Oc3ccc(NC(=O)c4n[nH]c(=O)n(-c5ccc(F)cc5)c4=O)cc3F)c2cc1OC [Example 107, 4-(4-Fluoro-phenyl)-3,5-dioxo-2,3,4,5-tetrahydro-[1,2,4]triazine-6-carboxylic acid [4-(6,7-dimethoxy-quinolin-4-yloxy)-3-fluoro-phenyl]-amide] | < 10 | < 10
CCn1cc(C(=O)Nc2ccc(Oc3ccnc4cc(OC)c(OC)cc34)c(C(F)(F)F)c2)c(=O)n(-c2ccc(F)cc2)c1=O [Example 159, 1-Ethyl-3-(4-fluoro-phenyl)-2,4-dioxo-1,2,3,4-tetrahydro-pyrimidine-5-carboxylic acid [4-(6,7-dimethoxy-quinolin-4-yloxy)-3-trifluoromethyl-phenyl]-amide] | 10 to 100 | < 10
COc1cc2nccc(Oc3ccc(NC(=O)c4cn(Cc5ccccc5)c(=O)n(-c5ccc(F)cc5)c4=O)cc3F)c2cc1OC [Example 77, 1-Benzyl-3-(4-fluoro-phenyl)-2,4-dioxo-1,2,3,4-tetrahydro-pyrimidine-5-carboxylic acid [4-(6,7-dimethoxy-quinolin-4-yloxy)-3-fluoro-phenyl]-amide] | 10 to 100 | < 10
CCn1nc(C(=O)Nc2ccc(Oc3ccnc4cc(OC)ccc34)c(F)c2)c(=O)n(-c2ccc(F)cc2)c1=O [Example 171, 2-Ethyl-4-(4-fluoro-phenyl)-3,5-dioxo-2,3,4,5-tetrahydro-1,2,4-triazine-6-carboxylic acid [3-fluoro-4-(7-methoxy-quinolin-4-yloxy)-phenyl]-amide] | < 10 | < 10
COc1cc2nccc(Oc3ccc(NC(=O)c4cn(CCn5cccn5)c(=O)n(-c5ccc(F)cc5)c4=O)cc3F)c2cc1OC [Example 63, 3-(4-Fluoro-phenyl)-2,4-dioxo-1-(2-pyrazol-1-yl-ethyl)-1,2,3,4-tetrahydro-pyrimidine-5-carboxylic acid [4-(6,7-dimethoxy-quinolin-4-yloxy)-3-fluoro-phenyl]-amide] | < 10 | < 10
CCn1cc(C(=O)Nc2ccc(Oc3ccnc4cc(OC)c(OC)cc34)cc2F)c(=O)n(-c2ccc(F)cc2)c1=O [Example 87, 1-Ethyl-3-(4-fluoro-phenyl)-2,4-dioxo-1,2,3,4-tetrahydro-pyrimidine-5-carboxylic acid [4-(6,7-dimethoxy-quinolin-4-yloxy)-2-fluoro-phenyl]-amide] | 10 to 100 | < 10
CCn1cc(C(=O)Nc2ccc(Oc3ccnc4cc(OC)c(OC)cc34)cc2OC)c(=O)n(-c2ccc(F)cc2)c1=O [Example 143, 1-Ethyl-3-(4-fluorophenyl)-2,4-dioxo-1,2,3,4-tetrahydropyrimidine-5-carboxylic acid [4-(6,7-dimethoxy-quinolin-4-yloxy)-2-methoxyphenyl]-amide] | < 10 | < 10
COc1cc2nccc(Oc3ccc(NC(=O)c4cn(CC(=O)N(C)C)c(=O)n(-c5ccc(F)cc5)c4=O)cc3F)c2cc1OC [Example 83, 1-Dimethylcarbamoylmethyl-3-(4-fluorophenyl)-2,4-dioxo-1,2,3,4-tetrahydro-pyrimidine-5-carboxylic acid [4-(6,7-dimethoxy-quinolin-4-yloxy)-3-fluorophenyl]-amide] | 10 to 100 | < 10
C#CCn1nc(C(=O)Nc2ccc(Oc3ccnc4cc(OC)c(OC)cc34)c(F)c2)c(=O)n(-c2ccc(F)cc2)c1=O [Example 113, 4-(4-Fluoro-phenyl)-3,5-dioxo-2-prop-2-ynyl-2,3,4,5-tetrahydro-[1,2,4]triazine-6-carboxylic acid [4-(6,7-dimethoxy-quinolin-4-yloxy)-3-fluoro-phenyl]-amide] | < 10 | < 10
CCCn1cc(C(=O)Nc2ccc(C(=O)c3ccnc4cc(OC)c(OC)cc34)c(F)c2)c(=O)n(-c2ccc(F)cc2)c1=O [Example 102, 3-(4-Fluoro-phenyl)-2,4-dioxo-1-propyl-1,2,3,4-tetrahydro-pyrimidine-5-carboxylic acid [4-(6,7-dimethoxy-quinoline-4-carbonyl)-3-fluoro-phenyl]-amide] | < 10 | < 10
COc1cc2nccc(Oc3ccc(NC(=O)c4cn(C5CCOCC5)c(=O)n(-c5ccc(F)cc5)c4=O)cc3F)c2cc1OC [Example 30, 3-(4-Fluorophenyl)-2,4-dioxo-1-(tetrahydropyran-4-yl)-1,2,3,4-tetrahydropyrimidine-5-carboxylic acid [4-(6,7-dimethoxyquinolin-4-yloxy)-3-fluorophenyl]-amide] | 10 to 100 | < 10
COc1cc2nccc(Oc3ccc(NC(=O)c4nn(CC(C)=O)c(=O)n(-c5ccc(F)cc5)c4=O)cc3F)c2cc1OC [Example 112, 4-(4-Fluorophenyl)-3,5-dioxo-2-(2-oxo-propyl)-2,3,4,5-tetrahydro-[1,2,4]triazine-6-carboxylic acid [4-(6,7-dimethoxyquinolin-4-yloxy)-3-fluorophenyl]-amide] | 10 to 100 | < 10
COc1cc2nccc(Oc3ccc(NC(=O)c4nn(C(C)C)c(=O)n(-c5ccc(F)cc5)c4=O)cc3F)c2cc1OC [Example 103, 4-(4-Fluoro-phenyl)-2-isopropyl-3,5-dioxo-2,3,4,5-tetrahydro-[1,2,4]triazine-6-carboxylic acid [4-(6,7-dimethoxy-quinolin-4-yloxy)-3-fluoro-phenyl]-amide] | 10 to 100 | < 10
COc1cc2nccc(Oc3ccc(NC(=O)c4cn(C)c(=O)n(-c5ccc(F)cc5)c4=O)c(F)c3F)c2cc1OC [Example 146, 1-Methyl-3-(4-fluorophenyl)-2,4-dioxo-1,2,3,4-tetrahydro-pyrimidine-5-carboxylic acid [4-(6,7-dimethoxy-quinolin-4-yloxy)-2,3-difluoro-phenyl]-amide] | < 10 | < 10
COCCCn1cc(C(=O)Nc2ccc(Oc3ccnc4cc(OC)c(OC)cc34)c(F)c2)c(=O)n(-c2ccc(F)cc2)c1=O [Example 7, 3-(4-Fluorophenyl)-1-(3-methoxypropyl)-2,4-dioxo-1,2,3,4-tetrahydropyrimidine-5-carboxylic acid [4-(6,7-dimethoxyquinolin-4-yloxy)-3-fluorophenyl]-amide] | 10 to 100 | < 10
